From patent EP4640674A1, “CRYSTAL FORMS OF ETHOXIMOD, PREPARATION METHOD THEREFOR AND USE THEREOF” (Jiankuan (Suzhou) Biotechnology Co., Ltd, priority 2022, dated 2024)
“Also recorded” adds a separate entry of the source.

Assays:
[1] = Solid-state stability on storage (crystal form by XRPD, purity); assay type: physicochemical; conditions: for Crystal Form after storage / main purity after storage / maximum single impurity after storage: 30 days exposed; for main purity / maximum single impurity: before storage
Protocol: Samples were taken before and after storage, and crystal forms were measured through XRPD. […] Table 3 Comparison of solid-state stability of crystal form A and crystal form B

[2] = Dynamic vapor sorption (hygroscopicity); assay type: physicochemical; conditions: for hygroscopic weight gain (vapor sorption): 25 °C/90% RH; for hygroscopic weight gain (vapor sorption) / hygroscopicity / crystal form after the dynamic vapor sorption test (XRPD): hydrochloride; for hygroscopicity: DVS, 90% RH; for crystal form after the dynamic vapor sorption test (XRPD): after DVS test
Source text: In the examples of the present application, the instrument used for the X-ray powder diffraction test is the D2 Phaser produced by Bruker. The instrument used for the differential scanning calorimetry test is the differential scanning calorimeter DSC 250 produced by TA Instruments. The instrument used for the thermogravimetric analysis is the thermogravimetric analyzer TGA 55 produced by TA Instruments. The instrument used for the FT-IR test is the Fourier infrared spectrometer ID1-summit produced by Thermo. The instrument used for the dynamic vapor sorption test is the DVS Intrinsic produced by Surface Measurement Systems (SMS). The instrument used for the microscopy is the microscope NJF-120A produced by Suzhou Nanguang Electronic Technology Co., Ltd.
Samples of the crystal form A and the crystal form B of ethoximod were taken for a dynamic vapor sorption test.

[3] = 40 °C/75% RH, 60 °C and 92.5% RH for 30 days
[4] = light for 30 days, hydrochloride

| Compound | change in main purity [1, 3] | Crystal Form after storage ([1]; At 40 °C/75% RH, hydrochloride) | main purity after storage ([1]; At 40 °C/75% RH, hydrochloride) [A%] | maximum single impurity after storage ([1]; At 40 °C/75% RH, hydrochloride) | Crystal Form after storage ([1]; At 60 °C, hydrochloride) | main purity after storage ([1]; At 60 °C, hydrochloride) [A%] | maximum single impurity after storage ([1]; At 60 °C, hydrochloride) | Crystal Form after storage ([1]; At 92.5% RH, hydrochloride) | main purity after storage ([1]; At 92.5% RH, hydrochloride) [A%] | maximum single impurity after storage ([1]; At 92.5% RH, hydrochloride) | Crystal Form after storage ([1]; In light, hydrochloride) | main purity after storage ([1]; In light, hydrochloride) [A%] | maximum single impurity after storage ([1]; In light, hydrochloride) | main purity ([1]; hydrochloride) | maximum single impurity ([1]; hydrochloride) | change in main purity [1, 4] | hygroscopic weight gain (vapor sorption) [2] [%] | hygroscopicity [2] | crystal form after the dynamic vapor sorption test (XRPD) [2] | other results |
| --- | --- | --- | --- | --- | --- | --- | --- | --- | --- | --- | --- | --- | --- | --- | --- | --- | --- | --- | --- | --- |
| CCc1nc(-c2ccc(-c3ccc(CCC(N)(CO)CO)cc3)cc2)co1.Cl [crystal form A, 2-amino-2-{2-(4'-(2-ethyloxazol-4-yl)-[1,1'-biphenyl]-4-yl)ethyl}-1,3-propylene glycol hydrochloride] | no significant change | crystal form A | 98.88 | 0.35 A% | crystal form A | 98.82 | maximum single impurity: 0.35 A% | crystal form A | 98.86 | maximum single impurity: 0.35 A% | crystal form A | 97.79 | maximum single impurity: 0.34 A% | 98.84 A% | 0.40 A% | slightly decreased | 0.14 | no or almost no hygroscopicity | not subjected to crystal transformation | time the crystal form is stable (XRPD) ([1]; 60 °C, 92.5% RH, light and 45 °C/75% RH): at least 30 days; vapor sorption weight gain ([2]; 24.3 °C and 90% RH): 0.14% |
| CCc1nc(-c2ccc(-c3ccc(CCC(N)(CO)CO)cc3)cc2)co1.Cl [crystal form B, 2-amino-2-{2-(4'-(2-ethyloxazol-4-yl)-[1,1'-biphenyl]-4-yl)ethyl}-1,3-propylene glycol hydrochloride] | no significant change | crystal form C | 98.82 | maximum single impurity: 0.34 A% | crystal form B | 98.61 | maximum single impurity: 0.36 A% | crystal transformed into the crystal form C | 98.83 | maximum single impurity: 0.36 A% | crystal form B | 91.81 | maximum single impurity: 1.57 A% | crystal form B main purity: 98.85 A% | maximum single impurity: 0.33 A% | decreased to a certain extent | 4.6 | with hygroscopicity; also recorded: has hygroscopicity | crystal transformed into the crystal form C; also recorded: crystal transformed into a crystal form C | time the crystal form is stable (XRPD) ([1]; 60 °C and light): at least 30 days; crystal form after storage (XRPD) ([1]; placed for 5 days under 92.5% RH and 45 °C/75% RH): crystal transformed into the crystal form C |
